From ChEMBL document CHEMBL3774333, “Identification of SNAIL1 Peptide-Based Irreversible Lysine-Specific Demethylase 1-Selective Inactivators” (J Med Chem, 2016)
Calls of active or inactive are those of the source. The calls are words filed in the database; no cut-off is given here.

Assays:
[1] = target: T1, Lysine-specific histone demethylase 1A (Homo sapiens, UniProt O60341); assay: biochemical
Description: Inhibition of full length N-terminal His-tagged human recombinant LSD1 (1 to 852 residues) expressed in Escherichia coli BL21(DE3) cells using H3K4me2 peptide as substrate preincubated for 5 mins followed by substrate addition measured for 30 mins by peroxidase coupled assay

[2] = test system: HeLa; assay: Antiproliferative activity against human HeLa cells assessed as inhibition of cell viability at 12.5 to 100 uM treated for 24 hrs measured after 48 hrs by alamar blue assay in absence of fetal bovine serum; format: functional, cell-based
[3] = target: T1, Lysine-specific histone demethylase 1A; assay: Inhibition of LSD1 in human HeLa cells assessed as H3K4me2/H3 ratio at 20 uM after 24 hrs by Western blot analysis in absence of fetal bovine serum; format: cell-based
[4] = target: T2, Amine oxidase [flavin-containing] B (Homo sapiens, UniProt P27338); assay: biochemical
T2 sequence (P27338 whole entry): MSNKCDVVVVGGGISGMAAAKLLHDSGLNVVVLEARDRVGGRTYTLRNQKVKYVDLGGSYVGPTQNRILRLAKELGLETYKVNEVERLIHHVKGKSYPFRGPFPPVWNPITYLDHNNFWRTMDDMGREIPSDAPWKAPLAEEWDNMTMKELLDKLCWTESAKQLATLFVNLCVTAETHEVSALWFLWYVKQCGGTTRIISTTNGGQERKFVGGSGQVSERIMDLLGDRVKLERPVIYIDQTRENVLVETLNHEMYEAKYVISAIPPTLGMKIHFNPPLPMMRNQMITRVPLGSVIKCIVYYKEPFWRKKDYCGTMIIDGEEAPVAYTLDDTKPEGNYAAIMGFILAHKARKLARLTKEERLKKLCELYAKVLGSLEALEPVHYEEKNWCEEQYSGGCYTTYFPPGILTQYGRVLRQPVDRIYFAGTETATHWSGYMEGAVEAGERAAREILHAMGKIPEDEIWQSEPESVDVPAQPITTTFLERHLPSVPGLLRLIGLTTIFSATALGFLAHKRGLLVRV
Description: Inhibition of human recombinant MAO-B expressed in baculovirus infected BTI insect cells using (4S)-4,5-dihydro-2-(6-hydroxybenzothiazolyl)-4-thiazolecarboxylic acid as substrate incubated for 60 mins by MAO-Glo assay

[5] = target: T1, Lysine-specific histone demethylase 1A; settings: 22 h
Description: Drug metabolism assessed as LSD1 (unknown origin)-mediated compound-FAD adduct formation after 22 hrs by MALDI-TOF mass spectrometric analysis

[6] = target: T3, Lysine-specific histone demethylase 2 (Homo sapiens, UniProt Q8NB78); assay: biochemical
T3 sequence (Q8NB78 whole entry): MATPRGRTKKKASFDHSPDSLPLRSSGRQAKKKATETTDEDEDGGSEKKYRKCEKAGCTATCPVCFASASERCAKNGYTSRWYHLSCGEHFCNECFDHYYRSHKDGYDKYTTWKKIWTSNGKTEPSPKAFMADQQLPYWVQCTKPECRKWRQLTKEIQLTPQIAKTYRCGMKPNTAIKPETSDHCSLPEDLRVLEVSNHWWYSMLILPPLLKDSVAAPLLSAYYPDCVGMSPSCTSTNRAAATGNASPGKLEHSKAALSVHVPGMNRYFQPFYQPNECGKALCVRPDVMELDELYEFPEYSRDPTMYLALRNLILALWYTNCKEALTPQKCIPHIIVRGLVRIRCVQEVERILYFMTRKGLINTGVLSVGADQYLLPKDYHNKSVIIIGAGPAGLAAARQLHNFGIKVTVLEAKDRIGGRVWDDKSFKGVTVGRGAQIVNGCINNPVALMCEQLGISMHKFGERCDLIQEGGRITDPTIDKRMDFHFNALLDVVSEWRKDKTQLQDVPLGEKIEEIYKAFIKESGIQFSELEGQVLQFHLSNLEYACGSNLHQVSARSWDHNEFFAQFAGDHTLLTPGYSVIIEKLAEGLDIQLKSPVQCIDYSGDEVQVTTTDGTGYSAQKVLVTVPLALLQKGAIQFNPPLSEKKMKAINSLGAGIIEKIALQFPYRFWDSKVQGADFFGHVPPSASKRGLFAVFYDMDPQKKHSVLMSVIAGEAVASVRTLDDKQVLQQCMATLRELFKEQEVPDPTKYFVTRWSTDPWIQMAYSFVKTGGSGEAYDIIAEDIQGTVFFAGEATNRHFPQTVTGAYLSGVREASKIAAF
Description: Inhibition of full length N-terminal His-tagged human LSD2 (1 to 822 residues) expressed in Escherichia coli BL21(DE3) cells using H3K4me2 peptide substrate by MALDI-TOF mass spectrometric analysis

[7] = species: Homo sapiens
[8] = target: T4, Amine oxidase [flavin-containing] A (Homo sapiens, UniProt P21397); assay: biochemical
T4 sequence (P21397 whole entry): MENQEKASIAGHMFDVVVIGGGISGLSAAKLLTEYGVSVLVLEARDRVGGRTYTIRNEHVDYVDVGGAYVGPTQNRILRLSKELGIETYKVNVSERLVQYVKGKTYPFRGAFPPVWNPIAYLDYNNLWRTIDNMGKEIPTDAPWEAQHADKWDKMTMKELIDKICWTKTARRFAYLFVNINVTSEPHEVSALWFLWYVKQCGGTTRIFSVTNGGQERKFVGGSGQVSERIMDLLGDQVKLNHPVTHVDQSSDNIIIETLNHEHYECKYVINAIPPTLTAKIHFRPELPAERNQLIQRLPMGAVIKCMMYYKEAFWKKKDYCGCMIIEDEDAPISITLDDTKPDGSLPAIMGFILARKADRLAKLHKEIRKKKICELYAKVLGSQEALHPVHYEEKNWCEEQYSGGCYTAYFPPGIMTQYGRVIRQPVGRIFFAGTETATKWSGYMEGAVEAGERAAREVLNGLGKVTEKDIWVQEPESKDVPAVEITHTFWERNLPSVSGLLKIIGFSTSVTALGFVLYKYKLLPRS
Description: Inhibition of human recombinant MAO-A expressed in baculovirus infected BTI insect cells using (4S)-4,5-dihydro-2-(6-hydroxybenzothiazolyl)-4-thiazolecarboxylic acid as substrate incubated for 60 mins by MAO-Glo assay

[9] = species: Homo sapiens; remark: listed apart in the source
[10] = target: Lysine-specific demethylase 5A (Homo sapiens, UniProt P29375)
Description: Inhibition of JARID1A (unknown origin) using H3K4me3 peptide substrate preincubated for 5 mins followed by substrate addition by MALDI-TOF mass spectrometric analysis

[11] = species: Homo sapiens; remark: listed apart in the source
[12] = species: Homo sapiens; remark: listed apart in the source

Lysine-specific demethylase 5A, sequence (P29375 whole entry): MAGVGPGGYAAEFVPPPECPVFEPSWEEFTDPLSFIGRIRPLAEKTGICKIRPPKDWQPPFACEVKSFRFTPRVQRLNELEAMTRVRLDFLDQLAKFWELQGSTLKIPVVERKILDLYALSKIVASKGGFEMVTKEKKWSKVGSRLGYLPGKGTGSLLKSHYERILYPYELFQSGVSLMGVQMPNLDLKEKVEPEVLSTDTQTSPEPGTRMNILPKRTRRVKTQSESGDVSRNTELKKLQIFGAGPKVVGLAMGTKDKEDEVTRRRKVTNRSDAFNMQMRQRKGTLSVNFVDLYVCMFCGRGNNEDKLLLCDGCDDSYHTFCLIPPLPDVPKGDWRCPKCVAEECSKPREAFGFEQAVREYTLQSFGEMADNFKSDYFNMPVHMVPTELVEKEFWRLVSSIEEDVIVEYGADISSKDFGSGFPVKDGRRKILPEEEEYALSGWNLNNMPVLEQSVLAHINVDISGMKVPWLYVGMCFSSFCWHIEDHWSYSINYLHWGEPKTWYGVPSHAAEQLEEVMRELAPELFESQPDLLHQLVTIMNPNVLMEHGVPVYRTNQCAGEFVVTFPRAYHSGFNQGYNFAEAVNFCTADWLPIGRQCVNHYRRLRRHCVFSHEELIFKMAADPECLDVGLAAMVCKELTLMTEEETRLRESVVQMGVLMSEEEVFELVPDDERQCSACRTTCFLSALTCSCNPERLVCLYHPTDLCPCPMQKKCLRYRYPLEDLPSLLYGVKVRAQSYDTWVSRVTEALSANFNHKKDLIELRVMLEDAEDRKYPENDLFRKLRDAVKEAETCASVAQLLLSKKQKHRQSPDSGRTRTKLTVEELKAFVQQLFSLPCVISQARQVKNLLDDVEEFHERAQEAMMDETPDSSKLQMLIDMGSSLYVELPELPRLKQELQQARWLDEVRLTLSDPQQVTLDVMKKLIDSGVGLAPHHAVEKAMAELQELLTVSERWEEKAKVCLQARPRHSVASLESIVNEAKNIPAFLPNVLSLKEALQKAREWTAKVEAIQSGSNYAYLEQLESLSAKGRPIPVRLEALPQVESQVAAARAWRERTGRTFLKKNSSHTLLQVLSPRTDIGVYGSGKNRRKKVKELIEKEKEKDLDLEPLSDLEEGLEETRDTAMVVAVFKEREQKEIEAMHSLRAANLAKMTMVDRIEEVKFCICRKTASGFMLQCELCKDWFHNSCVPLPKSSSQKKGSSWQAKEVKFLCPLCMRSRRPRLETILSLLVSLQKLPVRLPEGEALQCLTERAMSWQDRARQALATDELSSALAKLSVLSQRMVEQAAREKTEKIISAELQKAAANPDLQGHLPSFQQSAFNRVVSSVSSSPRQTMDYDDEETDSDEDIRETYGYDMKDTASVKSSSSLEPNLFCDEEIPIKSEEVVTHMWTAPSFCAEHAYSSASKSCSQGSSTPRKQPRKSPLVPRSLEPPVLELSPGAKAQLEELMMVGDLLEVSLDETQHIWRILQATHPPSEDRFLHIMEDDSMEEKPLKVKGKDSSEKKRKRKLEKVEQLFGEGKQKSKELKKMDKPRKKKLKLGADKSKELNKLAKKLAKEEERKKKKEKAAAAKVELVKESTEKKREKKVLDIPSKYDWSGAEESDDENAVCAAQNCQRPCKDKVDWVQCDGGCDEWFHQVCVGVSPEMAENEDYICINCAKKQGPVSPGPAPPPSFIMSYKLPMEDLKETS

## CC(C)C[C@H](NC(=O)[C@H](CCCCN[C@H]1C[C@@H]1c1ccccc1)NC(=O)[C@H](CO)NC(=O)[C@H](CCCNC(=N)N)NC(=O)[C@@H]1CCCN1)C(=O)N[C@H](C(=O)N[C@@H](CCCNC(=N)N)C(=O)N[C@@H](CCCCN)C(=O)N1CCC[C@H]1C(=O)N[C@@H](CO)C(=O)N[C@@H](CC(=O)O)C(=O)N1CCC[C@H]1C(=O)N[C@@H](CC(N)=O)C(=O)N[C@@H](CCCNC(=N)N)C(=O)N[C@@H](CCCCN)C(=O)N1CCC[C@H]1C(=O)N[C@@H](CC(N)=O)C(=O)N[C@@H](Cc1ccc(O)cc1)C(=O)N[C@@H](CO)C(=O)N[C@@H](CCC(N)=O)C(N)=O)C(C)C
[1]
  IC50: 63 µM

## CC(C)C[C@H](NC(=O)[C@H](CCCCN)NC(=O)[C@H](CO)NC(=O)[C@@H](CCCNC(=N)N)NC(=O)[C@H]1CCCN1)C(=O)N[C@H](C(=O)N[C@@H](CCCNC(=N)N)C(=O)N[C@@H](CCCCNC(=O)[C@@H](CCCNC(=N)N)NC(=O)[C@@H](CCCNC(=N)N)NC(=O)[C@@H](CCCNC(=N)N)NC(=O)[C@@H](CCCNC(=N)N)NC(=O)[C@@H](CCCNC(=N)N)NC(=O)[C@@H](CCCNC(=N)N)NC(=O)[C@@H](CCCNC(=N)N)NC(=O)[C@@H](N)CCCNC(=N)N)C(=O)N1CCC[C@H]1C(=O)N[C@@H](CO)C(=O)N[C@@H](CC(=O)O)C(=O)N1CCC[C@H]1C(=O)N[C@@H](CC(N)=O)C(=O)N[C@@H](CCCNC(=N)N)C(=O)N[C@@H](CCCCN)C(=O)N1CCC[C@H]1C(=O)N[C@H](CC(N)=O)C(=O)N[C@@H](Cc1ccc(O)cc1)C(=O)N[C@@H](CO)C(=O)N[C@@H](CCC(N)=O)C(N)=O)C(C)C
[2]
  inhibition: inactive
[3]
  Ratio: 1.06

## CC(C)C[C@@H](NC(=O)[C@@H](CCCNN)NC(=O)[C@@H](CO)NC(=O)[C@H](CCCNC(=N)N)NC(=O)[C@@H]1CCCN1)C(=O)N[C@@H](C(=O)N[C@H](CCCNC(=N)N)C(=O)N[C@H](CCCCN)C(=O)N1CCC[C@@H]1C(=O)N[C@@H](CO)C(=O)N[C@@H](CC(=O)O)C(=O)N1CCC[C@H]1C(=O)N[C@@H](CC(N)=O)C(=O)N[C@@H](CCCNC(=N)N)C(=O)N[C@H](CCCCNC(=O)[C@H](CCCNC(=N)N)NC(=O)[C@H](CCCNC(=N)N)NC(=O)[C@H](CCCNC(=N)N)NC(=O)[C@H](CCCNC(=N)N)NC(=O)[C@H](CCCNC(=N)N)NC(=O)[C@H](CCCNC(=N)N)NC(=O)[C@H](CCCNC(=N)N)NC(=O)[C@H](N)CCCNC(=N)N)C(=O)N1CCC[C@H]1C(=O)N[C@H](CC(N)=O)C(=O)N[C@@H](Cc1ccc(O)cc1)C(=O)N[C@@H](CO)C(=O)N[C@@H](CCC(N)=O)C(N)=O)C(C)C
[4]
  IC50: 30 µM
[2]
  inhibition: Active
[5]
  Drug metabolism: metabolite_detected
[6]
  IC50: 7.51 µM
[7]
  Ratio IC50: 16
[8]
  IC50: > 30 µM
[1]
  IC50: 0.32 µM
[9]
  Ratio IC50: > 94
[10]
  IC50: 5.05 µM
[11]
  Ratio IC50: 94
[12]
  Ratio IC50: 23
[3]
  Ratio: 1.52
